{"source": "paper PMC4211885", "about": "(PLoS ONE, 2014)", "key": {"[1]": {"molecular_target": "T1, OA/TAMac receptor (Macrobrachium rosenbergii, UniProt D9U2B9)", "T1 sequence (D9U2B9 entry or part of it)": "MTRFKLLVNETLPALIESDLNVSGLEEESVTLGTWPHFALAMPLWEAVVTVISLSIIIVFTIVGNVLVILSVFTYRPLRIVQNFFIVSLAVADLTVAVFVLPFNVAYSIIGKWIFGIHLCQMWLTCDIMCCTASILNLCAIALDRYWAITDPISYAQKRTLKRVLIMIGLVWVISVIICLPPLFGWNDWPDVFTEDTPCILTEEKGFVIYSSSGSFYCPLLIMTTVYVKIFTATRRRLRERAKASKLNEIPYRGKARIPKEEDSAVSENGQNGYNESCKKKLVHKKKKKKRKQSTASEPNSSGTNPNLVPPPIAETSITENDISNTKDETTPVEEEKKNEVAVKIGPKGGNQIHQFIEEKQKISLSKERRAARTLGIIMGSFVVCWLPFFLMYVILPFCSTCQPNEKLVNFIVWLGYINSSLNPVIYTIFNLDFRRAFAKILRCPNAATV", "assay": "Agonist-evoked direct-current (ID) in Xenopus oocytes injected with OA/TAMac cRNA, two-electrode voltage clamp", "assay_type": "cell-based", "conditions": "for Amplitude of agonist evoked ID relative to octopamine-evoked current: all agonists at 50 µM, within single oocytes", "excerpt": "We used Xenopus oocytes to express the prawn OA/TAMac receptor by injection of synthetic cRNA. The injection of foreign RNA into Xenopus oocytes typically induces the expression of multiple native chloride and potassium channels. Ligand evoked currents resulting from modulation of these channels have been used extensively in the characterization of heterologously expressed GPCRs. Oocytes are typically voltage clamped at a constant membrane potential around −60 mV and deviations in holding potential are measured. We refer to currents measured in this way as direct-currents (ID) (after) in order to distinguish them from the voltage-evoked transient current (ICl-T) described later.\nBoth flow rate and pulse duration were precisely controlled and comparisons were made relative to currents within single oocytes.\nTo characterize the dose dependence of ID, series of single transmitters were applied to different individual oocytes injected with OA/TAMac. Oocytes were voltage clamped at −60 mV and tyramine, (+/−)-octopamine, or dopamine were applied using 30 second perfusion-switched applications (see methods for more details).\n(§1) Recordings were performed 1–3 days post-injection at room temperature (20–22°C). Currents were recorded under two-electrode voltage clamp using an Axoclamp 900a amplifier (Molecular Devices LLC, CA USA). A digidata 1440a analog to digital converter was used in conjunction with pCLAMP 10 software (Molecular Devices) for data acquisition and to generate voltage commands. For each step protocol or chemical application data were typically sampled at 5 KHz and filtered digitally at 1 KHz. For the duration of each experiment the current was also continuously sampled at 1 kHz using a separate minidigi 1A digitizer (Molecular Devices). Glass microelectrodes were pulled from filamented 1.2 mm thin wall borosilicate glass (World Precision Instruments, Sarasota, FL) using a Sutter Instruments P-97 puller. They were filled with 3 M KCl and had resistances of 0.8–2.0 MΩ. A silver chloride pellet immersed in 3 M KCl and connected to the bath via a 3% agar bridge made with 3 M KCl was used as the reference electrode.\nOocytes were continuously perfused at 1.5 mL/min either with ND 96 or test compounds dissolved in ND 96. Two types of application were used over the course of this study, a perfusion-switch or a focal application. In all cases solutions were delivered through a gravity fed system and switched using a computer controlled bank of pinch valves. Flow rate was regulated with a manual screw-type pinch valve.\nFor focal application a triple barrel pipette with three parallel independently switched channels was positioned about 1 mm from the surface of the oocyte, up-stream of a cross flow, at an approximate angle of 45 degrees (schematic shown in Fig. S8). Drugs were focally applied during continuous perfusion with ND 96.\n(§2) In experiments where more than three drugs or concentrations were tested a precisely controlled 30 s perfusion-switch was used. Up to eight channels were connected to the bath via an 8-way manifold. There was an approximately 6–7 s delay for solutions to traverse the dead volume between the manifold and the bath."}, "[2]": {"system": "CFTR conductance (intracellular cAMP)", "assay": "cAMP detection by whole oocyte (CFTR) conductance in oocytes co-expressing CFTR and OA/TAMac", "assay_type": "cell-based, Xenopus laevis", "conditions": "FSK at 50 µM", "excerpt": "It is also unlikely that the effects of tyramine at high concentration result from an increase in cAMP. It is common that octopaminergic GPCRs can couple through the canonical Gαs/cAMP pathway so we used co-expression of the Cystic Fibrosis Trans-membrane Conductance Regulator (CFTR) as a means of testing for increases in cAMP (see methods for more detail) [60]–[63].\nAs a means of detecting rises in intracellular cAMP levels we tested oocytes co-expressing the CFTR channel and OA/TAMac. Heterologously expressed CFTR can be used as an extremely sensitive assay for intracellular cAMP in Xenopus oocytes. CFTR mediates a chloride-selective leak conductance that is activated by increases in intracellular cAMP [63]. Activity of CFTR can thus be used to indicate whether changes in cAMP correspond with ligand application [60]–[62]. Whole oocyte conductance was monitored using a step protocol and calculated from I/V plots. The command voltage was stepped from the holding potential to various levels (−10 mV to −55 mV in −5 mV increments) for 150 ms. The steady state current during each step was plotted against the command voltage and fit to a line using Clampfit 10 software (Fig. S7A). The slope of the line was taken as the conductance. To minimize the magnitude of the holding current between drug applications, oocytes expressing CFTR were typically held at −20 mV which is close to the typical chloride reversal potential. This was confirmed by the fact that the direct-current evoked by forskolin could appear inward or outward at −20 mV. Oocytes expressing either OA/TAMac alone or OA/TAMac and CFTR typically had resting membrane potentials between −20 mV and −30 mV (mean of −26±5 mV calculated from oocytes in Fig. S7) due to increased expression of endogenous chloride currents.\n(A) The measurement of whole oocyte conductance was done by plotting steady state current against the command voltage recorded during a step protocol. It is defined as the slope (I/V) of the linear least squares regression line. In the example shown tyramine (TA) causes no apparent change in whole oocyte conductance. Octopamine (OA) causes a small change compared to the adenylate cyclase activator forskolin (FSK). […] These cumulative data are from 20 OA/TAMac and CFTR-injected oocytes and 6 OA/TAMac -only injected oocytes. Conductance was measured as shown in A. Not all compounds were tested in all oocytes. Each response is treated as an independent sample. Concentrations of OA and TA were at 100 µM or 1000 µM, FSK was at 50 µM. Some points obtained at 3 minutes were grouped with the 4 minute responses. (C) The change in conductance (Δg) occurring within oocytes as determined by the difference between baseline and the indicated time points post-application of compound. […]"}, "[3]": {"molecular_target": "T1, OA/TAMac receptor", "assay": "Antagonist block of ID evoked by 50 µM octopamine in OA/TAMac-injected oocytes", "assay_type": "cell-based", "protocol": "as §1, §2"}, "[4]": {"system": "Uninjected oocytes", "assay": "Direct-current response of uninjected oocytes (control)", "assay_type": "cell-based, Xenopus laevis", "conditions": "n = 5", "protocol": "We first tested receptor-injected oocytes for the occurrence of a response to biogenic amines. Applications of tyramine, octopamine, or dopamine produced an inward ID, typically ranging between 50 nA and 500 nA, under a constant holding potential of −60 mV. […] The amplitude of tyramine evoked ID at concentrations below 10 µM was greater than octopamine or dopamine within the same oocyte (Figs. 2A and S2). […] Instead it would rise and then begin to decline prior to the removal of agonist (dotted line). However, at high concentrations, above 100 µM, ID appeared to approach a stable plateau (Fig. 2B).\nas §1\nSupplementary file pone.0111314.s001.tif: Figure S1 Direct-current (ID) responses are specifically evoked by agonists in oocytes injected with OA/TAMac only. […] The trace is representative of an experimental set of 5 oocytes. Additional uninjected oocytes were tested with various experimental sets throughout the course of this study. (B) A typical preliminary test of agonist sensitivity. Injection of OA/TAMac cRNA alone is sufficient to confer sensitivity to OA. […] Applications are approximately 30 seconds in the upper trace. (C) The response of clonidine (CN), synephrine (SN), and OA within a single OA/TAMac injected oocyte. […] All drugs are applied for 30 seconds each as indicated by black rectangles. Agonist evoked currents are measured within oocytes relative to the octopamine response at 50 µM. The comparison is made to OA because the amplitude of the tyramine response becomes small at concentrations above 10 µM. This is due to a mechanistically undefined process not seen with any other agonist we tested. Note that TA is the first compound applied to a naïve oocyte in this example. […] (TIF) Click here for additional data file."}, "[5]": {"assay": "Solubility limit in ND 96 when preparing test solutions", "assay_type": "physicochemical", "conditions": "ND 96, from methanol stock", "method": "Compounds were obtained from Sigma and dissolved in ND96 or calcium free ND 96 (96 mM NaCl, 2 mM KCl, 5 mM MgCl2, 0.1 mM EGTA, and 5 mM HEPES, pH 7.6), unless stated otherwise. […] SQ-22536 was prepared as a 0.1 M stock in water. Yohimbine was dissolved in acidic ND 96 to 1 mM, before being serially diluted at pH 7.6. Forskolin was prepared as a 0.05 M stock in DMSO. Thapsigargin was prepared as a 0.01 M stock in DMSO. (−)-Quinpirol was made as a 0.01 M stock in ND96 and stored in aliquots at −20°C. […] For all antagonists serial dilutions were made in ND 96 containing 50 µM octopamine and applied as a mixture."}, "[6]": {"conditions": "antagonist applied as mixture with 50 µM octopamine, 30 second perfusion-switch, −60 mV, estimated graphically, read-out: IC50 for block of octopamine-evoked ID"}}, "note": "“Also recorded” adds a separate entry of the source. Where two headings read alike, the source gives them in different places."}
{"smiles": "CNCC(O)c1ccc(O)cc1", "note": "(racemic) [(+/−)-synephrine]", "values": [{"measurement": "Amplitude of agonist evoked ID relative to octopamine-evoked current", "setting": "[1]; 30 second perfusion-switch", "value": "smaller currents than octopamine or β-PEA"}]}
{"smiles": "CCCN1CCC[C@@H]2Cc3n[nH]cc3C[C@H]21", "note": "[(−)-quinpirole]", "values": [{"measurement": "Amplitude of agonist evoked ID relative to octopamine-evoked current", "setting": "[1]; 30 second perfusion-switch", "value": "smaller currents than octopamine or β-PEA"}, {"measurement": "Amplitude of agonist evoked ID relative to octopamine-evoked current", "setting": "[1]; 30 second perfusion-switch, listed as quinpirole", "value": "produces a response in injected oocytes and not in uninjected oocytes"}]}
{"smiles": "Clc1cccc(Cl)c1N=C1NCCN1", "note": "[Clonidine]", "values": [{"measurement": "Amplitude of agonist evoked ID relative to octopamine-evoked current", "setting": "[1]; 30 second perfusion-switch", "value": "no visible response"}]}
{"smiles": "C=C[C@@]1(C)CC(=O)[C@]2(O)[C@@]3(C)[C@@H](O)CCC(C)(C)[C@@H]3[C@H](O)[C@H](OC(C)=O)[C@@]2(C)O1", "note": "[FSK, forskolin]", "values": [{"measurement": "Evoked whole oocyte conductance", "setting": "[2]", "value": "significantly larger conductance than baseline or TA"}]}
{"smiles": "CN1CCc2cc(Cl)c(O)cc2[C@@H](c2ccccc2)C1", "note": "[SCH-23390]", "values": [{"measurement": "IC50", "setting": "[3]; [6]", "value": "~9.6", "unit": "µM"}]}
{"smiles": "Nc1ncnc2c1ncn2C1CCCO1", "note": "(stereo not drawn) [SQ-22536]", "values": [{"measurement": "Effect of adenylate cyclase inhibitor on amine evoked ID", "setting": "[1]; tyramine n = 3, octopamine n = 6", "value": "no apparent effect; also recorded: no obvious effect"}]}
{"smiles": "NCCc1ccc(O)c(O)c1", "note": "[dopamine]", "values": [{"measurement": "ID response amplitude (mean ± s.d.)", "setting": "[1]; 10 µM, 10 second focal application, −60 mV, OA/TAMac and CFTR co-injected, n = 11 oocytes", "value": "46±31", "unit": "nA"}, {"measurement": "EC50", "setting": "[1]; 30 second perfusion-switch, voltage clamped at −60 mV, approximate, estimated graphically from plot, read-out: EC50 of transmitter evoked direct-current (ID), normalized I/Imax", "value": "~63", "unit": "µM"}, {"measurement": "Concentration at which evoked inward currents became visible/apparent", "setting": "[1]; 30 second perfusion-switched applications, −60 mV", "value": "around 1 µM"}, {"measurement": "Spearman rank-order correlation (rS) between rise rate and peak amplitude of evoked ID", "setting": "[1]; all responses of the concentration series of Figure 3C", "value": 0.97}, {"measurement": "Response of uninjected oocytes", "setting": "[4]", "value": "no response"}, {"measurement": "Response of uninjected oocytes", "setting": "[4]; listed as DA", "value": "do not respond"}]}
{"smiles": "NC1=NCC2c3ccccc3Cc3ccccc3N12", "note": "(stereo not drawn) [epinastine]", "values": [{"measurement": "IC50", "setting": "[3]; [6]", "value": "~3.7", "unit": "µM"}]}
{"smiles": "O=C(CCCN1CCC(O)(c2ccc(Cl)cc2)CC1)c1ccc(F)cc1", "note": "[haloperidol]", "values": [{"measurement": "Limit of solubility", "setting": "[5]", "value": "could not be tested at 100 µM because of its limit of solubility"}]}
{"smiles": "NCCc1c[nH]cn1", "note": "[histamine]", "values": [{"measurement": "Amplitude of agonist evoked ID relative to octopamine-evoked current", "setting": "[1]; 30 second perfusion-switch", "value": "no response or minimal response"}, {"measurement": "Amplitude of agonist evoked ID relative to octopamine-evoked current", "setting": "[1]; 30 second perfusion-switch, listed as Histamine", "value": "minimal response"}]}
{"smiles": "Cc1ccc(N(CC2=NCCN2)c2cccc(O)c2)cc1", "note": "[phentolamine]", "values": [{"measurement": "IC50", "setting": "[3]; [6]", "value": "~0.98", "unit": "µM"}]}
{"smiles": "C/C=C(/C)C(=O)O[C@H]1C(C)=C2[C@H]([C@@H]1OC(=O)CCCCCCC)[C@@](C)(OC(C)=O)C[C@H](OC(=O)CCC)[C@@]1(O)[C@H]2OC(=O)[C@@]1(C)O", "note": "[thapsigargin]", "values": [{"measurement": "Effect of pre-incubation on tyramine-induced ID waveform", "setting": "[1]; 1.7 µM in calcium-free ND 96 for three hours, n = 2", "value": "no apparent effect on the tyramine induced plateau"}]}
{"smiles": "COC(=O)[C@@H]1[C@H]2C[C@H]3c4[nH]c5ccccc5c4CCN3C[C@@H]2CC[C@@H]1O", "note": "[yohimbine]", "values": [{"measurement": "IC50", "setting": "[3]", "value": "~0.48", "unit": "µM"}]}
{"smiles": "NCCc1ccccc1", "note": "[β-phenylethylamine]", "values": [{"measurement": "Amplitude of agonist evoked ID relative to octopamine-evoked current", "setting": "[1]; 30 second perfusion-switch", "value": "comparable or greater amplitude than octopamine"}]}
